Measurements from patent US20260191825A1, “CONTRACEPTIVE COMPOUNDS AND DOSING FOR THE SAME” (YourChoice Therapeutics, Inc., priority 2024, published 2026).
Where “and” joins values, the source holds several entries; their conditions need not be identical. Equal entries are not always repeated. Entries after “also recorded” stand apart in the source; their conditions may differ.

Experiments:
rats = assay: Rat repeat dose non-GLP efficacy study (sperm counts, MABEL); assay type: in vivo
Description: Rat testicular toxicity reversibility characteristics and findings after repeat dosing are discussed in Section 3.1.4.
Rat 35-day repeat dose non-GLP study with a MABEL of 0.75 mg/kg/day.

CYP2D6 = CYP2D6 (Homo sapiens, UniProt P10635); assay: In vitro CYP inhibition (direct and time-dependent), CYP2D6; assay type: in vitro ADME
From the text: (§1) However, the likelihood of drug interactions is low since healthy participants who meet eligibility criteria will be enrolled in this Phase 1b/2a clinical trial. An allowance for select concomitant medications may be considered for select participants at the discretion of the investigator and/or sponsor if drug profiles are not anticipated to interact with Compound A. Such medications may include, but will not be limited to paracetamol or ibuprofen as assessed by both the PI and the Sponsor. […] Additional precautions to avoid grapefruit, pomegranates, star fruit, or Seville oranges for 7 days prior to admission, and juices and products containing these fruits for the duration of the study will be taken.

[1] = NHP exploratory 14-day non-GLP repeat-dose study; assay type: in vivo, cynomolgus monkey; conditions: male, cynomolgus monkey, in vivo; for NOAEL at 14 days: NHP
Description: (§2) An exploratory 14-day non-GLP study was conducted in male NHPs (cynomolgus monkeys) for assessment of efficacy and toxicity parameters prior to the conduct of the 28-day GLP toxicity studies in rats and dogs.

[2] = tested on: male NHPs (cynomolgus monkeys); assay: NHP exploratory 14-day non-GLP repeat-dose study; assay type: in vivo, cynomolgus monkey
Description: as §2

[3] = tested on: central nervous system (CNS); assay: Rat FOB / CNS safety pharmacology study; assay type: in vivo; conditions: male Sprague Dawley rats, single oral doses of 3, 10 or 30 mg/kg
CYP2C9 = CYP2C9 (Homo sapiens, UniProt P11712); assay: In vitro CYP inhibition (direct and time-dependent), CYP2C9; assay type: in vitro ADME
From the text: as §1

CYP2B6 = CYP2B6 (Homo sapiens, UniProt P20813); assay: In vitro CYP inhibition (direct and time-dependent), CYP2B6; assay type: in vitro ADME
From the text: as §1

sperm counts = assay: Phase 1b MAD study (Part 1), 28-day dosing, sperm counts; assay type: in vivo, human; conditions: men dosed for 4 weeks (28 oral doses) at doses of up to 90 mg
From the text: The main underlying reason provided by experts in the male contraceptive field is the dosing duration. Dosing for 28 days in men only covers approximately one third of the entire cycle from sperm production to sperm release, which takes 85 days in men (71 days for one spermatogenic cycle and 14 days for epididymal transit). […] Therefore, the dosing period will be extended from 28 days to 90 days with the anticipation that this will show the intended effect (reduction in sperm concentration).
Cohort 4 (receiving 180 mg) is currently being studied.

[4] = Dog single dose cardiovascular study; conditions: male, Beagle, dog, in vivo
male Beagle dogs = assay: Dog single dose cardiovascular study; conditions: male Beagle dogs, single dose 2.5, 5 or 25 mg/kg
CYP1A2 = CYP1A2 (Homo sapiens, UniProt P05177); assay: In vitro CYP inhibition (direct and time-dependent), CYP1A2; assay type: in vitro ADME
From the text: as §1

Chain of CYP2C9 (P11712 whole entry): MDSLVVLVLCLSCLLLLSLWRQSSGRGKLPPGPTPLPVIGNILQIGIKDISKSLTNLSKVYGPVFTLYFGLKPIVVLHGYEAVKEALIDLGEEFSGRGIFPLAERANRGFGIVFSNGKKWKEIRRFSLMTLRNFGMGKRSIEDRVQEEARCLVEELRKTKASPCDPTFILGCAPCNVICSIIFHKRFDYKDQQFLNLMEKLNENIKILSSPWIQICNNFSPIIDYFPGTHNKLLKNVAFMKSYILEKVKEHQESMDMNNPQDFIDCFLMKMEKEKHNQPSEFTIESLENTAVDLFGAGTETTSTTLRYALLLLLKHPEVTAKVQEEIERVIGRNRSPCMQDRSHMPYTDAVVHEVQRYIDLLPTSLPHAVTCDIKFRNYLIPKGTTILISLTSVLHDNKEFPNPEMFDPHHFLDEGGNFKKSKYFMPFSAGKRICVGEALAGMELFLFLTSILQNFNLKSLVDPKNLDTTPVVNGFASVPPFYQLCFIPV
Chain of CYP2B6 (P20813 whole entry): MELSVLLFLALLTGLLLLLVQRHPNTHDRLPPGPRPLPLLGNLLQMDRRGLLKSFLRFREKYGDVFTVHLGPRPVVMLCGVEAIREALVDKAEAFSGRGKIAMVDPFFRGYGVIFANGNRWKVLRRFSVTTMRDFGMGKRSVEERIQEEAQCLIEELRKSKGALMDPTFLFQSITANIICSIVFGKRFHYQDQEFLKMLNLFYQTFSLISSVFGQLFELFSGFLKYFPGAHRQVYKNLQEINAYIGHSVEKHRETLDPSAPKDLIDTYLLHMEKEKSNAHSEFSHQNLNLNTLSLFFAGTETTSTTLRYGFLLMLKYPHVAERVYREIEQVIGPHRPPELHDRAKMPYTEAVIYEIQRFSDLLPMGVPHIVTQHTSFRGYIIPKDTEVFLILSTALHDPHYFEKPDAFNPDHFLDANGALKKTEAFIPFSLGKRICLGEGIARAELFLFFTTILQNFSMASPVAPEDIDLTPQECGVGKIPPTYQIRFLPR
Chain of CYP1A2 (P05177 whole entry): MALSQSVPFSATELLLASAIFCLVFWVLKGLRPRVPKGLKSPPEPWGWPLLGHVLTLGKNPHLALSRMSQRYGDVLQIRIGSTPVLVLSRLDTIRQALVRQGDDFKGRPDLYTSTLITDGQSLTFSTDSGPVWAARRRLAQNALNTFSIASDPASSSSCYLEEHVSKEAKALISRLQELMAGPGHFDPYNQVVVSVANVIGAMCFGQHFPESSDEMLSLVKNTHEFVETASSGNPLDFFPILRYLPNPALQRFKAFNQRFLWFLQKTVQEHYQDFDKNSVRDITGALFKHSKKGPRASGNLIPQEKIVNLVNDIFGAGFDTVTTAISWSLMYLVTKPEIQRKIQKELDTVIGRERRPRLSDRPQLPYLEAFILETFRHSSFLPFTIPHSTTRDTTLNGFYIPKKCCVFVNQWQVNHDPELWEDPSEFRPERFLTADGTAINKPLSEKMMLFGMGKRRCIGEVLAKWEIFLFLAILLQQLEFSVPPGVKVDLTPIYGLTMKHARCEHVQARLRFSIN
Chain of CYP2D6 (P10635 whole entry): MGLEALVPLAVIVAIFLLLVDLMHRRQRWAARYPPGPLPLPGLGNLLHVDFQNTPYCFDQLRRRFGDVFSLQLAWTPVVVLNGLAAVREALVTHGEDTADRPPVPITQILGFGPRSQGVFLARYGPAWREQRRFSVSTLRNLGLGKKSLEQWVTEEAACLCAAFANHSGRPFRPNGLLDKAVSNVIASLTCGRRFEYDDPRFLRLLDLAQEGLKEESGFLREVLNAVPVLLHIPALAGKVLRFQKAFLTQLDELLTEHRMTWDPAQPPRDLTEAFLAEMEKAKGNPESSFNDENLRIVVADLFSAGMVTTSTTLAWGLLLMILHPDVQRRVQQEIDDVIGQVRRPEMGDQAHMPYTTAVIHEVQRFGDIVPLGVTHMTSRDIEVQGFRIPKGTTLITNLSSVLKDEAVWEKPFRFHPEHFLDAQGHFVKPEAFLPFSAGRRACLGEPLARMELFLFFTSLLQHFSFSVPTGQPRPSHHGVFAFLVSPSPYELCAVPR

Structure (SMILES): Cc1ccc(C2=CC(C)(C)Oc3ccc(-c4ccc(-c5ccc(C(=O)O)cc5)[nH]4)cc32)cc1 [Compound A]
- HED (based on BSA) of MABEL (rats; rat): 0.1 mg/kg
- HED for 60 kg BW of MABEL (rats; rat): 7.2 mg
- HED for 80 kg BW of MABEL (rats; rat): 9.6 mg
- MABEL (rats; rat, 35-day repeat dose non-GLP): 0.75 mg/kg/day
- Lowest dose with decreases in sperm counts / minimum efficacious dose in rats (rats; rat, repeat dose for 36 days): 0.75 mg/kg/day
- Recovery from disruption of spermatogenesis (rats; rats, 28-day dosing at 0.75 mg/kg/day and 1 mg/kg/day): recover from disruption of spermatogenesis
- IC50 (CYP2D6; CYP2D6): > 100 µM
- Time-dependent inhibition (TDI) (CYP2D6; CYP2D6, 0.3 to 100 μM): NADPH-independent time-dependent inhibition
- Human equivalent dose of NOAEL at 14 days ([1]; NHP 14-day non-GLP, NOAEL 10 mg/kg/day, read-out: HED of NOAEL): 3.2 mg/kg/day
- NOAEL at 14 days ([1]; 14-day repeat dose non-GLP, 5-20 mg/kg/day): 10 mg/kg/day
- NOAEL at 14 days ([1]; 14-day repeat-dose): 10 mg/kg
- NOAEL increase over the minimum efficacious dose in rats ([2]; NHP NOAEL 10 mg/kg/day): 22 fold
- Signs of toxicity ([2]; cynomolgus monkey, in vivo): No signs of toxicity
- HED (based on BSA) ([2]; of NHP 14-day repeat-dose NOAEL): 3.23 mg/kg and 3.2 mg/kg
- HED for 60 kg BW ([2]; of NHP repeat-dose NOAEL): 192 mg
- HED for 80 kg BW ([2]; of NHP repeat-dose NOAEL): 256 mg
- Main outcomes: rat FOB (adverse effects on CNS) [3]: no adverse effects; also recorded: Clean
- IC50 (CYP2C9; CYP2C9): 14.6 µM
- Time-dependent inhibition (TDI) (CYP2C9; CYP2C9, 0.3 to 100 μM): no TDI potential
- IC50 (CYP2B6; CYP2B6): 6.1 µM
- Time-dependent inhibition (TDI) (CYP2B6; CYP2B6, 0.3 to 100 μM): no TDI potential
- Effect on sperm counts (sperm counts): not sufficient to decrease sperm counts; also recorded: firm evidence of sperm reduction has not been observed; also recorded: have not been replicated
- NOAEL [4]: 25 mg/kg
- Main outcomes: dog cardiovascular (effects) (male Beagle dogs): no effects; also recorded: Clean
- IC50 (CYP1A2; CYP1A2): 30.1 µM
- Time-dependent inhibition (TDI) (CYP1A2; CYP1A2, 0.3 to 100 μM): no TDI potential
